According to PMC3533232, “Isolation of the bioactive peptides CCHamide-1 and CCHamide-2 from Drosophila and their putative role in appetite regulation as ligands for G protein-coupled receptors” (Frontiers in Endocrinology, 2012):
Where a SMILES comes first, the peptide text is derived from it. Bridges are numbered along the chain shown (N, C = ends). Where no end group is shown, it is not given here.

What was measured:
[1] = test system: CHO cells transfected with the vector alone; test: [Ca2+]i response in CHO cells transfected with the vector alone; assay type: cell-based, Chinese hamster; conditions: data not shown
Method: (§1) An assay system using CG30106- or CG14593-expressing cells was prepared as previously described ([Ida et al., 2011a],[b]). The full-length cDNA of Drosophila CG30106 (GenBank accession number: NM_136355; residues […] to 1700) and CG14593 (GenBank accession number: NM_136355; residues 656–2185) was obtained by RT-PCR using Drosophila cDNA as the template. The sense and antisense primers for CG30106 were 5′-[…]-3′ and 5′-[…]-3′, respectively. The sense and antisense primers for CG14593 were 5′-[…]-3′ and 5′-[…]-3′, respectively. The amplified cDNA was ligated into the pcDNA3.1 vector (Invitrogen). The expression vector, i.e., CG30106 or CG14593-pcDNA3.1, was transfected into Chinese hamster ovary (CHO) cells by using with Fugene6 transfection reagent (Roche), and stably expressing cells were selected using 1 mg/ml G418. […] Changes in intracellular Ca^2^+ concentrations ([Ca^2^+]i) were measured using the FlexStation 3 fluorometric imaging plate reader to conduct high-throughput measurements of intracellular Ca^2^+ concentration (Molecular Devices, CA, USA; [Marshall et al., 2005]). […] The cells were incubated with 100 μl of Calcium 4 assay kit reagent (Molecular Devices) for 1 h, and then 50 μl of each sample was added to the CHO-CG30106 or CHO-CG14593 cells to induce changes in fluorescence. The maximum [Ca^2^+]i changes were recorded. […]

blowfly Phormia regina = test: Proboscis extension reflex (PER) test; assay type: in vivo; conditions: 30 min after injection of 10 pmol (1 μl) into the shoulder, linger solution control 236 mM, p < 0.05, five sets of 20 flies
Method: The proboscis extension reflex (PER) test and feeding test were performed for the blowfly Phormia regina as previously described ([Nisimura et al., 2005]; [Ida et al., 2011a]). CCHamide-2 was dissolved in blowfly linger solution at a concentration of […]. Twenty flies were secured by their wings using washing pins, and the first PER test was performed by using 12 steps of sucrose concentrations that had been prepared by twofold serial dilutions in distilled water, beginning from a sucrose concentration of 1 M. We investigated the PER in three different groups of 20 flies each: no injection, fly linger injection, and fly linger plus peptide injection. The PER tests were performed 30 min after 1 μl of blowfly linger solution with or without peptide was injected into the shoulder of each fly. We repeated five sets of PER tests each, in which 20 flies were used in each batch.
Results are presented as the mean ± SEM for each group. To compare the PER thresholds among the three groups, we used a non-parametric Steel–Dwass test. The criterion for statistical significance was p < 0.05 for all tests. The statistical software program GraphPad PRISM (GraphPad software, CA, USA) was used for analyses.
In contrast, no difference was observed between the mean PER threshold without any injection and 30 min after linger solution injection (222 and 236 mM, respectively, p > 0.05). […]

flies = conditions: administration of CCHamide-2; ref Hiraguchi et al., paper in preparation; cited from earlier work
From the text: In addition, CCHamide-1 and CCHamide-2 have been detected in the nervous system and midgut in a mass spectrometry study performed by [Reiher et al. (2011)]. […] It is generally accepted that brain–gut peptides regulate feeding behavior in mammals ([Williams et al., 2001]). These peptides include neuropeptide Y, peptide YY, gastrin-releasing peptide, vasoactive inte ...

CG14593 = target: T1, CG14593 (Drosophila melanogaster, UniProt Q4V622); test: [Ca2+]i assay in CHO-CG14593 cells (FlexStation 3); assay type: cell-based; conditions: synthetic peptide not generated; predicted from amount of purified peptide and specific activity
T1 construct: expressed in transfected cells
T1 sequence (Q4V622 1-489): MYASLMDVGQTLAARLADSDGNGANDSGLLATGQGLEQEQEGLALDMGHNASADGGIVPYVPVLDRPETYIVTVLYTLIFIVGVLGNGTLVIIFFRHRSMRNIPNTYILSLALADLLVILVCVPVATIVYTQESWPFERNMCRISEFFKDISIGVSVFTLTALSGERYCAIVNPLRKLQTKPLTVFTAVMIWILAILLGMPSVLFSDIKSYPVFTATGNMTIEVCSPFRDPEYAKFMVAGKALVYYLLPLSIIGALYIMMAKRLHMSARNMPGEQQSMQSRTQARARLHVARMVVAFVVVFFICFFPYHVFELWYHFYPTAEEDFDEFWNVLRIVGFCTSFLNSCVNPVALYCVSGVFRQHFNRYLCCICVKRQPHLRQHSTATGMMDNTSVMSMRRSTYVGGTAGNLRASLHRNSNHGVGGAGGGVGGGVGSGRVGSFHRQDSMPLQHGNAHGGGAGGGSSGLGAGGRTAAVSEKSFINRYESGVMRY
Method: as §1

Row | Compound | [Ca2+]i response in vector-only CHO cells [1] | mean PER threshold (sucrose concentration at which 50% of flies show PER) (blowfly Phormia regina) | sucrose intake (flies) | predicted potency for activating CG14593 (CG14593)
1 | CC(C)C[C@@H]1NC(=O)[C@@H](NC(=O)[C@@H](N)CO)CSSC[C@@H](C(=O)N[C@@H](Cc2c[nH]c3ccccc23)C(=O)NCC(=O)N[C@@H](C)C(=O)N[C@@H](Cc2c[nH]cn2)C(N)=O)NC(=O)[C@H](CO)NC(=O)[C@H](Cc2c[nH]cn2)NC(=O)CNC(=O)[C@H](Cc2ccc(O)cc2)NC(=O)[C@H](CCC(=O)O)NC1=O [CCHamide-1] (H-SCLEYGHSCWGAH-NH2; disulfide 2-9) | Neither CCHamide-2 nor CCHamide-1 induced a response | – | – | –
2 | CC(C)[C@@H]1NC(=O)[C@H](Cc2c[nH]cn2)NC(=O)CNC(=O)[C@H](Cc2ccc(O)cc2)NC(=O)[C@H](C)NC(=O)[C@H](CCC(N)=O)NC(=O)[C@@H](NC(=O)CN)CSSC[C@@H](C(=O)N[C@@H](Cc2ccc(O)cc2)C(=O)NCC(=O)NCC(=O)N[C@@H](Cc2c[nH]cn2)C(N)=O)NC1=O [CCHamide-2] (H-GCQAYGHVCYGGH-NH2; disulfide 2-9) | Neither CCHamide-2 nor CCHamide-1 induced a response | 77.2 mM | significantly increased | –
3 | KKGCQAYGHVCYGGH-NH2 (disulfide 4-11 (inferred); N-terminus assumed; SMILES CC(C)[C@@H]1NC(=O)[C@H](Cc2c[nH]cn2)NC(=O)CNC(=O)[C@H](Cc2ccc(O)cc2)NC(=O)[C@H](C)NC(=O)[C@H](CCC(N)=O)NC(=O)[C@@H](NC(=O)CNC(=O)[C@H](CCCCN)NC(=O)[C@@H](N)CCCCN)CSSC[C@@H](C(=O)N[C@@H](Cc2ccc(O)cc2)C(=O)NCC(=O)NCC(=O)N[C@@H](Cc2c[nH]cn2)C(N)=O)NC1=O) [N-terminal extended form of CCHamide-2 purified from flies; not synthesized] | – | – | – | high potency similar to that of other forms of CCHamide-2
